In patent publication US7745222B2, “Amyloid binding assays” (priority 2006, dated 2010):

Assays:
[1] = system: A-beta fibrils (human A-beta 1-40); type: binding; settings: A-beta fibrils on rat brain section; fluorescence imaging; FIG. 4-5
Experimental: (§1) In one embodiment, sections of Sprauge-Dawley naïve rat brain (Taconic) 10 microns in thickness were fixed with 10% formalin in phosphate buffered saline (PBS).
The clear film of A-beta 1-40 was diluted with distilled water to achieve a 6-mg/mL concentration. […] The clear solution was diluted to 1 mg/mL with PBS, pH 7.4 to obtain a final concentration of 1 mg/mL A-beta 1-40 then incubated at 37° C. on an orbital shaker at 200 RPM for 4 days.
(§2) The slides were washed with PBS three times then incubated with blocking buffer consisting of 10% normal goat serum in 3% BSA in PBS.
(§3) For the sandwich assay approach 100 μL of 1/250th dilution of anti-A-beta antibody, (Signet) was applied to the tissue. The tissue was then incubated for 1.5 hours at room temperature, or in an alternative approach, for 45 minutes at 37° C. Next, a 1/100th dilution of the secondary antibody Alexa Flour 594-goat antimouse IgG (Molecular Probes) was prepared in PBS and 100 μl was applied to the slides, which were then incubated at room temperature for 1.5 hours. […]
(§4) Microscopic examination was performed using a Leica (Leica Microsystems Inc, Bannockburn Ill.) wide-field fluorescence microscope.
(§5) The fluorescent images were quantified by calculating the sum of pixel intensity of the immunofluorescence for each amyloid species. […]

[2] = system: soluble oligomeric A-beta (human beta-amyloid 1-42); type: binding; settings: for binding to soluble oligomeric A-beta: A-beta species on Sprague-Dawley naive rat brain section (hippocampus), fluorescence imaging, FIG. 2-3
Experimental: as §1
Soluble A-beta oligomer formation. 1 mg of human beta-amyloid 1-42 (H-5642, Bachem) and 500 uL of 1,1,1,3,3,3 hexafluoro-2-propanol (HFIP) (Aldrich) were chilled in separate bottles on ice for 30 minutes. Cold beta-amyloid 1-42 was solubilized with cold HFIP. The mixture was incubated for 1 hr at room temperature until it turned clear. The resulting solution was then dried to a film under vacuum. The film was dissolved again in cold HFIP and incubated another 1 hr at room temperature. The resulting solution was separated into aliquots in several microcentrifuge tubes. HFIP was removed under vacuum, and the films were stored at −20° C. until use. To prepare soluble oligomer, the film was dissolved in appropriate amount of dry DMSO (Sigma), and Ham's F12 media (Biosource) or PBS (Sigma, D8537) was added and incubated at 4° C. for 24 hours (final concentration of 200 uM or 0.9 mg/mL beta-amyloid in 2% DMSO).
as §2, §3, §4, §5

Compound	binding to A-beta fibrils [1]	binding to soluble oligomeric A-beta [2]	preferential binding, soluble A-beta relative to insoluble A-beta ([2]; stated as validated property of the binder)
Cc1ccc2c(c1)sc(-c1ccc(N(C)C)cc1)[n+]2C.[Cl-] [Thioflavin T]	bound	bound	
O=Cc1ccc(-c2oc3ccccc3c2CO)o1 [68B-3]	bound	bound	preferential binder for soluble A-beta
